Drawing on paper PMC7179226, “Sulfonamide Inhibition Studies of the β-Class Carbonic Anhydrase CAS3 from the Filamentous Ascomycete Sordaria macrospora” (Molecules, 2020), this text covers Ki for 35 molecules.

The first experiment concerns the target T1, CAS3 (Sordaria macrospora, UniProt F7VU04).
T1 construct: gene SMAC_03179; primers imply N-terminus (M)MPVTNEE and C-terminus KTVRVV-LE-His6
In words: stopped-flow CO2 hydration inhibition assay. The class given is biochemical.
Details: not given
Take `O=C1NS(=O)(=O)c2ccccc21` [SAC]: the Ki turned out to be 191 ± 12 nM.

Turning to `NS(=O)(=O)c1cc2c(cc1Cl)NCNS2(=O)=O` [HCT], the Ki stood at 545 ± 41 nM.

Molecule `Cc1ccc(-c2cc(C(F)(F)F)nn2-c2ccc(S(N)(=O)=O)cc2)cc1` [CLX] registered a Ki of 669 ± 29 nM.

The same experiment, now with this note: read-out: KI* (nM) / CAS3 ^c / β.
For the molecule `CC(=O)N=c1sc(S(N)(=O)=O)nn1C` [MZA, methazolamide], the Ki was 91 ± 6.2 nM.

Take `NS(=O)(=O)c1nnc(NS(=O)(=O)c2ccccc2)s1` [BZA, benzolamide]: the Ki worked out at 54 ± 0.9 nM.

For the molecule `NS(=O)(=O)c1ccc(S(=O)(=O)Nc2cccc3c(Cl)c[nH]c23)cc1` [IND], the Ki turned out to be 94 ± 4.6 nM.

In the case of `NS(=O)(=O)c1ccc(N2CCCCS2(=O)=O)cc1` [SLT, sulthiame], the Ki came out at 4840 ± 257 nM.

Turning to `CCN1CCCC1CNC(=O)c1cc(S(N)(=O)=O)ccc1OC` (centres unmarked) [SLP], the Ki was determined as 493 ± 27 nM.

`NS(=O)(=O)c1ccc(CO)cc1` [compound 16, 4-hydroxymethyl-benzenesulfonamide]: the Ki was 82 ± 3.7 nM.

On to `CC1(C)O[C@@H]2[C@@H](CO[C@@]3(COS(N)(=O)=O)OC(C)(C)O[C@@H]23)O1` [TPM], for which the Ki turned out to be 363 ± 23 nM.

Turning to `Nc1nnc(S(N)(=O)=O)s1` [compound 13, deacetylated precursor of acetazolamide], the Ki was 88 ± 2.9 nM.

For the molecule `Cc1onc(-c2ccccc2)c1-c1ccc(S(N)(=O)=O)cc1` [VLX], the Ki stood at 831 ± 38 nM.

For `Cn1nc(S(N)(=O)=O)sc1=N` [compound 14, deacetylated precursor of methazolamide], the Ki is 94 ± 4.1 nM.

In the case of `NS(=O)(=O)Cc1noc2ccccc12` [ZNS], the Ki turned out to be 710 ± 40 nM.

For the molecule `NS(=O)(=O)c1cc(Cl)c(Cl)c(S(N)(=O)=O)c1` [DCP, dichlorophnamide], the Ki stood at 73 ± 3 nM.

For the molecule `CCN[C@H]1CN(CCCOC)S(=O)(=O)c2sc(S(N)(=O)=O)cc21` [BRZ, brinzolamide], the Ki was determined as 61 ± 1.4 nM.

A further experiment concerns the target T2, CAS3 (Sordaria macrospora, UniProt F7VU04).
T2 construct: gene SMAC_03179; primers imply N-terminus (M)MPVTNEE and C-terminus KTVRVV-LE-His6
T2 sequence (F7VU04 1-174): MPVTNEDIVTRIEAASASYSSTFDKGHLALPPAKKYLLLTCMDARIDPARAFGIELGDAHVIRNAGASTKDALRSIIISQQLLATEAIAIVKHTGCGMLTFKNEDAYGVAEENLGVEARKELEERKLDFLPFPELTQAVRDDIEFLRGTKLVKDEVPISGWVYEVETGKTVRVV
Put plainly: biochemical. To be noted: read-out: KI* (nM) / CAS3 ^c / β. Here is the method:
An Applied Photophysics stopped-flow instrument was used for assaying the CA catalyzed CO2 hydration activity. […] The initial rates of the CA-catalyzed CO2 hydration were followed for a period of 10–100 s for each assay. […] For each measurement, six traces of the initial 5%–10% of the reaction were used for determining the initial velocity. Then, 10-fold decreasing dilution of inhibitor solutions, ranging from 1 nM and 100 µM were employed for determining the inhibition constants. Uncatalyzed rates were determined in the same manner and subtracted from total observed rates. Stock solutions of inhibitor (0.1 mM) were prepared in distilled deionized water, and dilutions up to 1 nM were done thereafter with the assay buffer. Inhibitor and enzyme solutions were preincubated together for 15 min at room temperature before to assay for allowing for the formation of E–I complexes. The inhibition constants were obtained by non-linear least-squares methods using the Cheng–Prusoff equation, and they represent the mean from at least three different determinations. The human isoforms hCA I, II were assayed in the same conditions as above except that the working pH was 7.4 HEPES buffer with phenol red as an indicator [21, 22].
Regarding `Nc1ccc(S(=O)(=O)Nc2nnc(S(N)(=O)=O)s2)cc1` [compound 20], the Ki was 85 ± 2.7 nM.

`Nc1ccc(S(=O)(=O)NCc2ccc(S(N)(=O)=O)cc2)cc1` [compound 23]: the Ki came to 89 ± 3.4 nM.

Take `NS(=O)(=O)c1cc(Cl)cc(Cl)c1O` [compound 10]: the Ki came to 350 ± 13 nM.

Turning to `Nc1ccc(S(N)(=O)=O)cc1Br` [compound 9], the Ki was found to be 712 ± 28 nM.

Take `Nc1cc(Cl)c(S(N)(=O)=O)cc1S(N)(=O)=O` [compound 12]: the Ki was 90 ± 5.7 nM.

With `NS(=O)(=O)c1ccc(C(=O)O)cc1` [compound 18], the Ki turned out to be 226 ± 13 nM.

`Cc1ccc(S(N)(=O)=O)cc1` [compound 4]: the Ki was found to be 560 ± 21 nM.

On to `Nc1nccc(Nc2ccc(S(N)(=O)=O)cc2)n1` [compound 19], for which the Ki came to 91 ± 4.4 nM.

`Nc1ccc(S(=O)(=O)Nc2ccc(S(N)(=O)=O)cc2)cc1` [compound 22]: the Ki was determined as 85 ± 2.6 nM.

`Nc1ccc(S(N)(=O)=O)cc1Cl` [compound 8]: the Ki was found to be 2080 ± 61 nM.

For the molecule `Nc1ccc(S(=O)(=O)NCCc2ccc(S(N)(=O)=O)cc2)cc1` [compound 24], the Ki came out at 84 ± 1.5 nM.

Regarding `NCc1ccc(S(N)(=O)=O)cc1` [compound 5], the Ki amounted to 726 ± 30 nM.

Regarding `Nc1ccc(S(N)(=O)=O)cc1F` [compound 7], the Ki worked out at 585 ± 23 nM.

Turning to `NS(=O)(=O)c1ccc(CCO)cc1` [compound 17], the Ki came out at 507 ± 26 nM.

For `NS(=O)(=O)c1ccc(CCNS(=O)(=O)c2ccc([N+](=O)[O-])cc2CO)cc1` [compound 21], the Ki stood at 95 ± 3.9 nM.

With `NS(=O)(=O)c1ccc(O)cc1` [compound 15], the Ki worked out at 605 ± 23 nM.

In the case of `NS(=O)(=O)c1cccc(S(N)(=O)=O)c1` [compound 3], the Ki is 83 ± 6 nM.

For `Nc1cc(C(F)(F)F)c(S(N)(=O)=O)cc1S(N)(=O)=O` [compound 11], the Ki was 235 ± 16 nM.

With `NCCc1ccc(S(N)(=O)=O)cc1` [compound 6], the Ki was determined as 441 ± 14 nM.
